From patent US5530133A, “7'-amino-naphthazarin antibiotic derivatives” (Gruppo Lepetit SpA, priority 1995, dated 1996)

How the values were obtained:
[1] = system: Trichomonas vaginalis (clin. isol.); experiment: MIC by broth dilution, Trichomonas vaginalis; assay type: cell-based; details: code TVL; approx. 10^5 cells/ml; Trichomonas Culture Medium Base + 10% horse serum; 48 h, 37° C.
Description: Inocula were approximately 10^4 cfu. Incubation was for 48 hours at 37° C. in nitrogen-carbon dioxide-hydrogen (80:10:10). […] The inoculum was approximately 10^5 cells/ml. After 48 hours of incubation at 37° C. in nitrogen-carbon dioxide-hydrogen (80:10:10) the wells were viewed directly with a microscope to detect the presence of viable (motile) protozoa.

[2] = system: Gardnerella vaginalis ATCC 14018; experiment: MIC by agar dilution, Gardnerella vaginalis; assay type: cell-based; details: code 332; Casman medium + rabbit blood; approx. 10^4 cfu; 48 h, 37° C.
[3] = system: Gram-positive and Gram-negative bacteria and fungi; details: according to U.S. Pat. No. 3,914,257; fungi incl. Trichophyton mentagrophytes and Candida albicans; cited from earlier work

MIC [1] [µg/mL] | MIC [2] [µg/mL] | Structure (SMILES) | in vitro antimicrobial activity [3]
8 | 2 | CCNC1=CC(=O)c2c(O)c3c(c(O)c2C1=O)OC1(C3)CC(O)c2cc3cc(C(=O)OC)oc(=O)c3c(O)c2O1 (stereo not shown) [Example 10, 7'-ethylamino purpuromycin] | 
2 |  | CNC1=CC(=O)c2c(O)c3c(c(O)c2C1=O)OC1(CCc2cc4cc(C(=O)OC)oc(=O)c4c(O)c2O1)C3 (stereo not shown) [Example 32, 7'-methylamino γ-rubromycin] | 
 |  | COC(=O)c1cc2cc3c(c(O)c2c(=O)o1)OC1(Cc2c(O)c4c(c(O)c2O1)C(=O)C(OC)=CC4=O)CC3O (stereo not shown) [purpuromycin] | active in vitro against both Gram-positive and Gram-negative bacteria and fungi
